Measured values from ChEMBL document CHEMBL1151495, “Activity of new penems against defined MRSA strains” (1993).
≈ marks a conversion by molar mass, not a printed value.

What was measured:
Format in all cases: functional
[1] = system: Staphylococcus aureus; assay: In vitro minimum inhibitory concentration against Staphylococcus aureus CDC1.
[2] = system: Staphylococcus aureus; assay: In vitro minimum inhibitory concentration against Staphylococcus aureus SN 7.
[3] = system: Staphylococcus aureus; assay: In vitro minimum inhibitory concentration against Staphylococcus aureus SN 43.
[4] = system: Staphylococcus aureus; assay: In vitro minimum inhibitory concentration against Staphylococcus aureus COL.

Structure (SMILES)	MIC [1]	MIC [2]	MIC [3]	MIC [4]
C[C@@H](O)[C@H]1C(=O)N2C(C(=O)O)=C(COc3ccccc3)S[C@H]12	0.39 µg/mL (≈ 1.21 µM)	50 µg/mL (≈ 156 µM)	100 µg/mL (≈ 311 µM)	50 µg/mL (≈ 156 µM)
C[C@@H](O)[C@H]1C(=O)N2C(C(=O)O)=C(COc3cncc4ccccc34)S[C@H]12	0.19 µg/mL (≈ 0.51 µM)	3.12 µg/mL (≈ 8.38 µM)	12.5 µg/mL (≈ 33.6 µM)	6.25 µg/mL (≈ 16.8 µM)
C[C@@H](O)[C@H]1C(=O)N2C(C(=O)O)=C(COC(=O)c3ccc4c(ccc5ccccc54)c3)S[C@H]12	0.022 µg/mL (≈ 0.0489 µM)	0.09 µg/mL (≈ 0.2 µM)	6.25 µg/mL (≈ 13.9 µM)	3.12 µg/mL (≈ 6.94 µM)
C[C@@H](O)[C@H]1C(=O)N2C(C(=O)O)=C(COC(=O)c3cccnc3)S[C@H]12	0.09 µg/mL (≈ 0.257 µM)	0.19 µg/mL (≈ 0.542 µM)	100 µg/mL (≈ 285 µM)	50 µg/mL (≈ 143 µM)
C[C@@H](O)[C@H]1C(=O)N2C(C(=O)O)=C(COC(=O)c3ccccc3)S[C@H]12	0.09 µg/mL (≈ 0.258 µM)	0.39 µg/mL (≈ 1.12 µM)	50 µg/mL (≈ 143 µM)	25 µg/mL (≈ 71.6 µM)
C[C@@H](O)[C@H]1C(=O)N2C(C(=O)O)=C(COc3cnccn3)S[C@H]12	0.19 µg/mL (≈ 0.588 µM)	0.39 µg/mL (≈ 1.21 µM)	> 100 µg/mL	100 µg/mL (≈ 309 µM)
C[C@@H](O)[C@H]1C(=O)N2C(C(=O)O)=C(COc3cncc(Cl)c3)S[C@H]12	0.09 µg/mL (≈ 0.252 µM)	0.78 µg/mL (≈ 2.19 µM)	50 µg/mL (≈ 140 µM)	25 µg/mL (≈ 70.1 µM)
C[C@@H](O)[C@H]1C(=O)N2C(C(=O)O)=C(COc3cccnc3)S[C@H]12	0.19 µg/mL (≈ 0.589 µM)	0.78 µg/mL (≈ 2.42 µM)	100 µg/mL (≈ 310 µM)	100 µg/mL (≈ 310 µM)
C[C@@H](O)[C@H]1C(=O)N2C(C(=O)O)=C(COC(=O)c3cnc4ccccc4c3)S[C@H]12	0.09 µg/mL (≈ 0.225 µM)	0.19 µg/mL (≈ 0.475 µM)	12.5 µg/mL (≈ 31.2 µM)	6.25 µg/mL (≈ 15.6 µM)
CC(O)[C@H]1C(=O)N2C(C(=O)O)=C(SCCNC=N)C[C@H]12.O (single isomer, unassigned) [IMIPENEM]	0.09 µg/mL	0.19 µg/mL	25 µg/mL	25 µg/mL
O=C(O)c1cn(C2CC2)c2cc(N3CCNCC3)c(F)cc2c1=O [CIPROFLOXACIN]	0.39 µg/mL (≈ 1.18 µM)	0.78 µg/mL (≈ 2.35 µM)	–	–
C[C@@H](O)[C@H]1C(=O)N2C(C(=O)O)=C(S[C@@H]3CN[C@H](C(=O)N(C)C)C3)[C@H](C)[C@H]12 [MEROPENEM]	0.19 µg/mL (≈ 0.495 µM)	1.56 µg/mL (≈ 4.07 µM)	25 µg/mL (≈ 65.2 µM)	100 µg/mL (≈ 261 µM)
C[C@@H](O)[C@H]1C(=O)N2C(C(=O)O)=C(COC(N)=O)S[C@H]12 [RITIPENEM]	0.19 µg/mL (≈ 0.659 µM)	0.39 µg/mL (≈ 1.35 µM)	100 µg/mL (≈ 347 µM)	100 µg/mL (≈ 347 µM)

The next lines start with the values.

MIC [1]	MIC [2]	MIC [3]	MIC [4]	Structure (SMILES)
< 0.011 µg/mL	< 0.011 µg/mL	6.25 µg/mL (≈ 13.9 µM)	6.25 µg/mL (≈ 13.9 µM)	C[C@@H](O)[C@H]1C(=O)N2C(C(=O)O)=C(COC(=O)c3ccc4ccc5ccccc5c4c3)S[C@H]12
0.09 µg/mL (≈ 0.225 µM)	0.39 µg/mL (≈ 0.976 µM)	6.25 µg/mL (≈ 15.6 µM)	12.5 µg/mL (≈ 31.3 µM)	C[C@@H](O)[C@H]1C(=O)N2C(C(=O)O)=C(COC(=O)c3ccc4ccccc4c3)S[C@H]12
0.39 µg/mL (≈ 0.698 µM)	1.56 µg/mL (≈ 2.79 µM)	50 µg/mL (≈ 89.5 µM)	6.25 µg/mL (≈ 11.2 µM)	C[C@@H](O)[C@H]1C(=O)N2C(C(=O)O)=C(COC(=O)c3cn(C4CC4)c4cc(N5CCNCC5)c(F)cc4c3=O)S[C@H]12
0.09 µg/mL (≈ 0.169 µM)	0.78 µg/mL (≈ 1.46 µM)	25 µg/mL (≈ 46.9 µM)	6.25 µg/mL (≈ 11.7 µM)	C[C@@H](O)[C@H]1C(=O)N2C(C(=O)O)=C(COc3c(I)cc(Cl)c4cccnc34)S[C@H]12
0.19 µg/mL (≈ 0.541 µM)	0.39 µg/mL (≈ 1.11 µM)	> 100 µg/mL	100 µg/mL (≈ 285 µM)	C[C@@H](O)[C@H]1C(=O)N2C(C(=O)O)=C(COC(=O)c3cnccn3)S[C@H]12
3.12 µg/mL (≈ 8.2 µM)	6.25 µg/mL (≈ 16.4 µM)	> 100 µg/mL	> 100 µg/mL	COc1cccc(OC)c1C(=O)N[C@@H]1C(=O)N2[C@@H]1SC(C)(C)[C@@H]2C(=O)O [METHICILLIN]
